How the values were obtained:
Assay type in all cases: in vivo
[1] = tested on: Diabrotica balteata (Corn Root Worm); test: Example B4: Diabrotica balteata, sprayed maize sprouts; conditions: 96 h, application rate of 200 ppm, L2 larvae, 4 days after infestation, read-out: effect in at least one of the two categories (mortality or growth inhibition)
Protocol: Example B4: Diabrotica balteata (Corn Root Worm)
Maize sprouts placed onto an agar layer in 24-well microtiter plates were treated with aqueous test solutions prepared from 10′000 ppm DMSO stock solutions by spraying. After drying, the plates were infested with L2 larvae (6 to 10 per well). The samples were assessed for mortality and growth inhibition in comparison to untreated samples 4 days after infestation.

[2] = tested on: Euschistus heros (Neotropical Brown Stink Bug); test: Example B9: Euschistus heros, sprayed soybean leaves; conditions: 120 h, application rate of 200 ppm, N2 nymphs, 5 days after infestation, read-out: effect in at least one of the two categories (mortality or growth inhibition)
Protocol: Example B9: Euschistus heros (Neotropical Brown Stink Bug)
Soybean leaves on agar in 24-well microtiter plates were sprayed with aqueous test solutions prepared from 10′000 ppm DMSO stock solutions. After drying the leaves were infested with N2 nymphs. The samples were assessed for mortality and growth inhibition in comparison to untreated samples 5 days after infestation.

[3] = tested on: Myzus persicae (Green Peach Aphid); test: Example B5: Myzus persicae, sprayed sunflower leaf discs; conditions: foliar, 144 h, application rate of 200 ppm, aphid population of mixed ages, 6 days after infestation
Protocol: Example B5: Myzus persicae (Green Peach Aphid)
Sunflower leaf discs were placed onto agar in a 24-well microtiter plate and sprayed with aqueous test solutions prepared from 10′000 ppm DMSO stock solutions. After drying, the leaf discs were infested with an aphid population of mixed ages. The samples were assessed for mortality 6 days after infestation.

[4] = tested on: Myzus persicae (Green Peach Aphid); test: Example B6: Myzus persicae, roots of pea seedlings in test solution; conditions: 144 h, test rate of 24 ppm, aphid population of mixed ages, 6 days after placing seedlings into test solutions
Protocol: Example B6: Myzus persicae (Green Peach Aphid)
Roots of pea seedlings infested with an aphid population of mixed ages were placed directly into aqueous test solutions prepared from 10′000 DMSO stock solutions. The samples were assessed for mortality 6 days after placing seedlings into test solutions.

[5] = tested on: Tetranychus urticae (Two-Spotted Spider Mite); test: Example B10: Tetranychus urticae, sprayed bean leaf discs; conditions: foliar, 192 h
Protocol: Example B10: Tetranychus urticae (Two-Spotted Spider Mite)
Bean leaf discs on agar in 24-well microtiter plates were sprayed with aqueous test solutions prepared from 10′000 ppm DMSO stock solutions. After drying the leaf discs were infested with a mite population of mixed ages. The samples were assessed for mortality on mixed population (mobile stages) 8 days after infestation.

[6] = tested on: Spodoptera littoralis (Egyptian Cotton Leaf Worm); test: Example B1: Spodoptera littoralis, sprayed cotton leaf discs; conditions: foliar, 72 h, application rate of 200 ppm, L1 larvae, 3 days after infestation, read-out: control (mortality, anti-feeding effect or growth inhibition)
Protocol: Example B1: Spodoptera littoralis (Egyptian Cotton Leaf Worm)
Cotton leaf discs were placed onto agar in 24-well microtiter plates and sprayed with aqueous test solutions prepared from 10′000 ppm DMSO stock solutions. After drying the leaf discs were infested with five L1 larvae. The samples were assessed for mortality, anti-feeding effect, and growth inhibition in comparison to untreated samples 3 days after infestation. Control of Spodoptera littoralis by a test sample is given when at least one of the categories mortality, anti-feedant effect, and growth inhibition is higher than the untreated sample.

[7] = tested on: Plutella xylostella (Diamond Back Moth); test: Example B3: Plutella xylostella, treated artificial diet; conditions: 120 h, application rate of 200 ppm, L2 larvae, 5 days after infestation, read-out: effect in at least one of the two categories (mortality or growth inhibition)
Protocol: Example B3: Plutella xylostella (Diamond Back Moth)
24-well microtiter plates with artificial diet were treated with aqueous test solutions prepared from 10′000 ppm DMSO stock solutions by pipetting. After drying, the plates were infested with L2 larvae (10 to 15 per well). The samples were assessed for mortality and growth inhibition in comparison to untreated samples 5 days after infestation.

[8] = tested on: Bemisia tabaci (Cotton White Fly); test: Example B8: Bemisia tabaci, sprayed cotton leaf discs; conditions: foliar, 144 h, application rate of 200 ppm, adult white flies, 6 days after incubation
Protocol: Example B8: Bemisia tabaci (Cotton White Fly)
Cotton leaf discs were placed on agar in 24-well microtiter plates and sprayed with aqueous test solutions prepared from 10′000 ppm DMSO stock solutions. After drying the leaf discs were infested with adult white flies. The samples were checked for mortality 6 days after incubation.

[9] = tested on: Frankliniella occidentalis (Western Flower Thrips); test: Example B12: Frankliniella occidentalis, sprayed sunflower leaf discs; conditions: foliar, 168 h, application rate of 200 ppm, population of mixed ages, 7 days after infestation
Protocol: Example B12: Frankliniella occidentalis (Western Flower Thrips)
Sunflower leaf discs were placed on agar in 24-well microtiter plates and sprayed with aqueous test solutions prepared from […] stock solutions. After drying the leaf discs were infested with a Frankliniella population of mixed ages. The samples were assessed for mortality 7 days after infestation.

CCS(=O)(=O)c1cccnc1-c1nc2cc([S+]([O-])C(F)F)ncc2n1C (stereo not drawn) [Compound P4]
≥ 80%: percent effect (mortality or growth inhibition) at 200 ppm [1] | percent effect (mortality or growth inhibition) at 200 ppm [2] | mortality at 200 ppm [3] | mortality at 24 ppm [4]

CCS(=O)(=O)c1cc(OC(C)C)cnc1-c1nc2cc([S+]([O-])C(F)F)ncc2n1C (stereo not drawn) [Compound P11, 6-(difluoromethylsulfinyl)-2-(3-ethylsulfonyl-5-isopropoxy-2-pyridyl)-3-methyl-imidazo[4,5-c]pyridine]
≥ 80%: mortality at 200 ppm [5] | percent effect (mortality or growth inhibition) at 200 ppm [2] | percent control (mortality, anti-feedant effect or growth inhibition) at 200 ppm [6] | mortality at 200 ppm [3] | percent effect (mortality or growth inhibition) at 200 ppm [7] | mortality at 24 ppm [4]

CCS(=O)(=O)c1cc(OC(C)C)cnc1-c1nc2cc(SC(F)F)ncc2n1C [Compound P12, 6-(difluoromethylsulfanyl)-2-(3-ethylsulfonyl-5-isopropoxy-2-pyridyl)-3-methyl-imidazo[4,5-c]pyridine]
≥ 80%: percent effect (mortality or growth inhibition) at 200 ppm [1] | percent effect (mortality or growth inhibition) at 200 ppm [2] | percent control (mortality, anti-feedant effect or growth inhibition) at 200 ppm [6] | mortality at 200 ppm [3] | percent effect (mortality or growth inhibition) at 200 ppm [7] | mortality at 24 ppm [4]

CCS(=O)(=O)c1cc(C(F)(F)F)cnc1-c1nc2cc([S+]([O-])C(F)F)ncc2n1C (stereo not drawn) [Compound P2, 6-(difluoromethylsulfinyl)-2-[3-ethylsulfonyl-5-(trifluoromethyl)-2-pyridyl]-3-methyl-imidazo[4,5-c]pyridine]
≥ 80%: percent effect (mortality or growth inhibition) at 200 ppm [1] | percent effect (mortality or growth inhibition) at 200 ppm [2] | percent control (mortality, anti-feedant effect or growth inhibition) at 200 ppm [6] | mortality at 200 ppm [3] | mortality at 200 ppm [8] | percent effect (mortality or growth inhibition) at 200 ppm [7] | mortality at 24 ppm [4]

CCS(=O)(=O)c1cc(OC(C)C)cnc1-c1nc2cc(S(=O)(=O)C(F)F)ncc2n1C [Compound P10, 6-(difluoromethylsulfonyl)-2-(3-ethylsulfonyl-5-isopropoxy-2-pyridyl)-3-methyl-imidazo[4,5-c]pyridine]
≥ 80%: mortality at 200 ppm [5] | percent effect (mortality or growth inhibition) at 200 ppm [2] | percent control (mortality, anti-feedant effect or growth inhibition) at 200 ppm [6] | mortality at 200 ppm [3] | percent effect (mortality or growth inhibition) at 200 ppm [7] | mortality at 24 ppm [4]

CCS(=O)(=O)c1ccc(-n2cncn2)nc1-c1nc2cc([S+]([O-])C(F)F)ncc2n1C (stereo not drawn) [Compound P8, 6-(difluoromethylsulfinyl)-2-[3-ethylsulfonyl-6-(1,2,4-triazol-1-yl)-2-pyridyl]-3-methyl-imidazo[4,5-c]pyridine]
≥ 80%: percent effect (mortality or growth inhibition) at 200 ppm [1] | percent effect (mortality or growth inhibition) at 200 ppm [2] | mortality at 200 ppm [3] | mortality at 200 ppm [8] | mortality at 24 ppm [4]

CCS(=O)(=O)c1cccnc1-c1nc2cc(SC(F)F)ncc2n1C [Compound P6, 6-(difluoromethylsulfanyl)-2-(3-ethylsulfonyl-2-pyridyl)-3-methyl-imidazo[4,5-c]pyridine]
≥ 80%: percent effect (mortality or growth inhibition) at 200 ppm [1] | percent effect (mortality or growth inhibition) at 200 ppm [2] | mortality at 200 ppm [3] | mortality at 24 ppm [4]

CCS(=O)(=O)c1ccc(-n2cncn2)nc1-c1nc2cc(SC(F)F)ncc2n1C [Compound P9, 6-(difluoromethylsulfanyl)-2-[3-ethylsulfonyl-6-(1,2,4-triazol-1-yl)-2-pyridyl]-3-methyl-imidazo[4,5-c]pyridine]
≥ 80%: percent effect (mortality or growth inhibition) at 200 ppm [1] | percent effect (mortality or growth inhibition) at 200 ppm [2] | percent control (mortality, anti-feedant effect or growth inhibition) at 200 ppm [6] | mortality at 200 ppm [3] | mortality at 200 ppm [8] | mortality at 24 ppm [4]

CCS(=O)(=O)c1ccc(-n2cncn2)nc1-c1nc2cc(S(=O)(=O)C(F)F)ncc2n1C [Compound P7, 6-(difluoromethylsulfonyl)-2-[3-ethylsulfonyl-6-(1,2,4-triazol-1-yl)-2-pyridyl]-3-methyl-imidazo[4,5-c]pyridine]
≥ 80%: percent effect (mortality or growth inhibition) at 200 ppm [1] | percent effect (mortality or growth inhibition) at 200 ppm [2] | mortality at 200 ppm [3] | mortality at 24 ppm [4]

CCS(=O)(=O)c1cc(C(F)(F)F)cnc1-c1nc2cc(S(=O)(=O)C(F)F)ncc2n1C [Compound P1, 6-(difluoromethylsulfonyl)-2-[3-ethylsulfonyl-5-(trifluoromethyl)-2-pyridyl]-3-methyl-imidazo[4,5-c]pyridine]
≥ 80%: percent effect (mortality or growth inhibition) at 200 ppm [1] | percent effect (mortality or growth inhibition) at 200 ppm [2] | percent control (mortality, anti-feedant effect or growth inhibition) at 200 ppm [6] | mortality at 200 ppm [3] | mortality at 200 ppm [8] | percent effect (mortality or growth inhibition) at 200 ppm [7] | mortality at 24 ppm [4]

CCS(=O)(=O)c1cc(C(F)(F)F)cnc1-c1nc2cc(SC(F)F)ncc2n1C [Compound P3, 6-(difluoromethylsulfanyl)-2-[3-ethylsulfonyl-5-(trifluoromethyl)-2-pyridyl]-3-methyl-imidazo[4,5-c]pyridine]
≥ 80%: percent effect (mortality or growth inhibition) at 200 ppm [1] | percent effect (mortality or growth inhibition) at 200 ppm [2] | percent control (mortality, anti-feedant effect or growth inhibition) at 200 ppm [6] | mortality at 200 ppm [9] | mortality at 200 ppm [3] | mortality at 200 ppm [8] | percent effect (mortality or growth inhibition) at 200 ppm [7] | mortality at 24 ppm [4]
